Paper PMC6691788, “Design and synthesis of phthalazine-based compounds as potent anticancer agents with potential antiangiogenic activity via VEGFR-2 inhibition” (Journal of Enzyme Inhibition and Medicinal Chemistry, 2019)

How the values were obtained:
NCI-H23 = assay: NCI 60 cell panel SRB screen; format: cell-based; settings: Homo sapiens
ACHN = assay: NCI 60 cell panel SRB screen; format: cell-based; settings: Homo sapiens
T-47D = assay: NCI 60 cell panel SRB screen; format: cell-based; settings: Homo sapiens, T47D
HOP-62 = assay: NCI 60 cell panel SRB screen; format: cell-based; settings: Homo sapiens
OVCAR-8 = assay: NCI 60 cell panel SRB screen; format: cell-based; settings: Homo sapiens
RPMI-8226 = assay: NCI 60 cell panel SRB screen; format: cell-based; settings: Homo sapiens
A549/ATCC = assay: NCI 60 cell panel SRB screen; format: cell-based; settings: Homo sapiens
NCI-H226 = assay: NCI 60 cell panel SRB screen; format: cell-based; settings: Homo sapiens
SNB-19 = assay: NCI 60 cell panel SRB screen; format: cell-based; settings: Homo sapiens
UO-31 = assay: NCI 60 cell panel SRB screen; format: cell-based; settings: Homo sapiens
MDA-MB 231/ATCC = assay: NCI 60 cell panel SRB screen; format: cell-based; settings: Homo sapiens
NCI-H522 = assay: NCI 60 cell panel SRB screen; format: cell-based; settings: Homo sapiens
MCF7 = assay: NCI 60 cell panel SRB screen; format: cell-based; settings: Homo sapiens
full NCI 60 cell panel = assay: NCI 60 cell panel SRB screen, whole panel; format: cell-based, human; settings: Homo sapiens, 60 cell
K-562 = assay: NCI 60 cell panel SRB screen; format: cell-based; settings: Homo sapiens, K562
SF-295 = assay: NCI 60 cell panel SRB screen; format: cell-based; settings: Homo sapiens
PC-3 = assay: NCI 60 cell panel SRB screen; format: cell-based; settings: Homo sapiens
NCI/ADR-RES = assay: NCI 60 cell panel SRB screen; format: cell-based; settings: Homo sapiens
HCC-2998 = assay: NCI 60 cell panel SRB screen; format: cell-based; settings: Homo sapiens
[1] = 5 log dose, 48 h, read-out: LC50 (the source's name)
[2] = single dose 10 μM, read-out: percent cell growth promotion

Clc1ccc(Nc2nnc(CNc3ccccc3)c3ccccc23)cc1 [Compound 16a, N-(4-Chlorophenyl)-4-((phenylamino)methyl)phthalazin-1-amine]
GI50 (NCI-H23; NCI-H23, 5 log dose): 2.5 µM
IC (TGI) (NCI-H23; NCI-H23, 5 log dose): 16.4 µM
CC50 (NCI-H23; NCI-H23, 5 log dose, 48 h, read-out: LC50 (the source's name)): > 25 µM
activity at 10 µM (NCI-H23; NCI-H23, single dose 10 μM, read-out: percent cell growth promotion): 9.95%
GI50 (ACHN; 5 log dose): 3.1 µM
IC (TGI) (ACHN; 5 log dose): > 25 µM
CC50 (ACHN; [1]): > 25 µM
activity at 10 µM (ACHN; [2]): 7.07%
GI50 (T-47D): 1.17 µM
IC (TGI) (T-47D; read-out: TGI): 8.28 µM
activity at 10 µM (T-47D; read-out: percent cell growth promotion): 2.82%
CC50 (T-47D; T-47D, 5 log dose, 48 h, read-out: LC50 (the source's name)): > 25 µM
GI50 (HOP-62; HOP-62, 5 log dose): 2.86 µM
IC (TGI) (HOP-62; HOP-62, 5 log dose): 8.84 µM
CC50 (HOP-62; HOP-62, 5 log dose, 48 h, read-out: LC50 (the source's name)): > 25 µM
activity at 10 µM (HOP-62; HOP-62, single dose 10 μM, read-out: percent cell growth promotion): 27.4%
GI50 (OVCAR-8; OVCAR-8, 5 log dose): 4.63 µM
IC (TGI) (OVCAR-8; OVCAR-8, 5 log dose): 16.8 µM
CC50 (OVCAR-8; OVCAR-8, 5 log dose, 48 h, read-out: LC50 (the source's name)): > 25 µM
activity at 10 µM (OVCAR-8; OVCAR-8, single dose 10 μM, read-out: percent cell growth promotion): 18.2%
GI50 (RPMI-8226; RPMI-8226, 5 log dose): 2.1 µM
IC (TGI) (RPMI-8226; RPMI-8226, 5 log dose): 7.71 µM
CC50 (RPMI-8226; RPMI-8226, 5 log dose, 48 h, read-out: LC50 (the source's name)): > 25 µM
activity at 10 µM (RPMI-8226; RPMI-8226, single dose 10 μM, read-out: percent cell growth promotion): 3.35%
GI50 (A549/ATCC; 5 log dose): 3.17 µM
IC (TGI) (A549/ATCC; 5 log dose): 20 µM
LC50 (concentration killing 50% of cells) (A549/ATCC; 5 log dose, 48 h): > 25 µM
activity at 10 µM (A549/ATCC; [2]): 20.3%
GI50 (NCI-H226; NCI-H226, 5 log dose): 2.52 µM
IC (TGI) (NCI-H226; NCI-H226, 5 log dose): 7.98 µM
CC50 (NCI-H226; NCI-H226, 5 log dose, 48 h, read-out: LC50 (the source's name)): > 25 µM
activity at 10 µM (NCI-H226; NCI-H226, single dose 10 μM, read-out: percent cell growth promotion): 25%
GI50 (SNB-19; SNB-19, 5 log dose): 4.71 µM
IC (TGI) (SNB-19; SNB-19, 5 log dose): 22.7 µM
CC50 (SNB-19; SNB-19, 5 log dose, 48 h, read-out: LC50 (the source's name)): > 25 µM
activity at 10 µM (SNB-19; SNB-19, single dose 10 μM, read-out: percent cell growth promotion): 25.9%
GI50 (UO-31; UO-31, 5 log dose): 1.36 µM
IC (TGI) (UO-31; UO-31, 5 log dose): 6.66 µM
CC50 (UO-31; UO-31, 5 log dose, 48 h, read-out: LC50 (the source's name)): 23.8 µM
activity at 10 µM (UO-31; UO-31, single dose 10 μM, read-out: percent cell growth promotion): 1.91%
GI50 (MDA-MB 231/ATCC; MDA-MB-231): 1.95 µM
IC (TGI) (MDA-MB 231/ATCC; MDA-MB-231, read-out: TGI): 8.73 µM
activity at 10 µM (MDA-MB 231/ATCC; MDA-MB-231, read-out: percent cell growth promotion): 19.9%
CC50 (MDA-MB 231/ATCC; MDA-MB-231, MDA-MDA 231/ATCC, 5 log dose, 48 h, read-out: LC50 (the source's name)): > 25 µM
GI50 (NCI-H522; NCI-H522, 5 log dose): 0.68 µM
IC (TGI) (NCI-H522; NCI-H522, 5 log dose): 4.62 µM
CC50 (NCI-H522; NCI-H522, 5 log dose, 48 h, read-out: LC50 (the source's name)): 18.5 µM
activity at 10 µM (NCI-H522; NCI-H522, single dose 10 μM, read-out: percent cell growth promotion): -5.92%
IC (TGI) (MCF7; MCF7, read-out: TGI): 11.1 µM
activity at 10 µM (MCF7; MCF7, read-out: percent cell growth promotion): 9.2%
CC50 (MCF7; MCF7, 5 log dose, 48 h, read-out: LC50 (the source's name)): > 25 µM
activity at 10 µM (full NCI 60 cell panel; mean over the panel, single dose 10 μM, read-out: Mean percent cell growth promotion): 10.7%
inhibition at 10 µM (full NCI 60 cell panel; single dose 10 µM, read-out: cell growth inhibition against various cell lines): > 90%
GI50 (K-562; K-562, 5 log dose): 1.71 µM
IC (TGI) (K-562; K-562, 5 log dose): 14.5 µM
CC50 (K-562; K-562, 5 log dose, 48 h, read-out: LC50 (the source's name)): > 25 µM
activity at 10 µM (K-562; K-562, single dose 10 μM, read-out: percent cell growth promotion): 5.39%
GI50 (SF-295; SF-295, 5 log dose): 2.98 µM
IC (TGI) (SF-295; SF-295, 5 log dose): 8.77 µM
CC50 (SF-295; SF-295, 5 log dose, 48 h, read-out: LC50 (the source's name)): > 25 µM
activity at 10 µM (SF-295; SF-295, single dose 10 μM, read-out: percent cell growth promotion): 14.3%
GI50 (PC-3; PC-3, 5 log dose): 14.4 µM
IC (TGI) (PC-3; PC-3, 5 log dose): 14.4 µM
CC50 (PC-3; PC-3, 5 log dose, 48 h, read-out: LC50 (the source's name)): > 25 µM
activity at 10 µM (PC-3; PC-3, single dose 10 μM, read-out: percent cell growth promotion): 7.15%
GI50 (NCI/ADR-RES; 5 log dose): 4.12 µM
IC (TGI) (NCI/ADR-RES; 5 log dose): 17 µM
CC50 (NCI/ADR-RES; [1]): > 25 µM
activity at 10 µM (NCI/ADR-RES; [2]): 18.8%
GI50 (HCC-2998; HCC-2998, 5 log dose): 4.85 µM
IC (TGI) (HCC-2998; HCC-2998, 5 log dose): 1.59 µM
LC50 (50% lethal concentration) (HCC-2998; HCC-2998, 5 log dose, 48 h): > 25 µM
activity at 10 µM (HCC-2998; HCC-2998, single dose 10 μM, read-out: percent cell growth promotion): 18.3%
